ChEMBL document CHEMBL3885881, “DrugMatrix”

Species on record: Rattus norvegicus
Assay: DrugMatrix - Regimen: Daily Repeat
Format: toxicity, organism-based, Sprague-Dawley
Set-up: regimen Daily Repeat, gender Male, age 6-8 weeks
Conditions: in vivo, po, route oral GAVAGE, vehicle .5 % CMC; for ABSOLUTE BASOPHIL / ABSOLUTE EOSINOPHIL / ABSOLUTE LYMPHOCYTE / ABSOLUTE MONOCYTE / ABSOLUTE SEGMENTED NEUTROPHIL / BASOPHIL / EOSINOPHIL / ERYTHROCYTE COUNT / HEMATOCRIT / HEMOGLOBIN / LEUKOCYTE COUNT / LYMPHOCYTE / MEAN CORPUSCULAR HEMOGLOBIN / MEAN CORPUSCULAR HEMOGLOBIN CONCENTRATION / MEAN CORPUSCULAR VOLUME / MONOCYTE / NEUTROPHIL / NUCLEATED RED BLOOD CELLS / PLATELET COUNT: tissue Blood; for ALANINE AMINOTRANSFERASE / ALBUMIN / ALKALINE PHOSPHATASE / ASPARTATE AMINOTRANSFERASE / BLOOD UREA NITROGEN / CARBON DIOXIDE / CHLORIDE / CHOLESTEROL / CREATINE PHOSPHOKINASE / CREATININE / GLUCOSE / LACTATE DEHYDROGENASE / LIPASE / PHOSPHORUS / POTASSIUM / SODIUM / TOTAL BILIRUBIN / TOTAL PROTEIN / URIC ACID: tissue Plasma
[1] = 50 mg/kg, 72 h, dose level Low, time 3 day
[2] = 50 mg/kg, 120 h, dose level Low, time 5 day
[3] = 350 mg/kg, 72 h, dose level High, time 3 day
[4] = 350 mg/kg, 120 h, dose level High, time 5 day

Compound: Cc1cccc(C)c1OCC(C)N (configuration not stated) [MEXILETINE]
- ABSOLUTE BASOPHIL [1]: 0 CELLS/uL
- ABSOLUTE EOSINOPHIL [1]: 76.67 CELLS/uL
- ABSOLUTE LYMPHOCYTE [1]: 11625.67 CELLS/uL
- ABSOLUTE MONOCYTE [1]: 164.33 CELLS/uL
- ABSOLUTE SEGMENTED NEUTROPHIL [1]: 733.33 CELLS/uL
- BASOPHIL [1]: 0%
- EOSINOPHIL [1]: 0.67%
- ERYTHROCYTE COUNT [1]: 5.83 x10E6/uL
- HEMATOCRIT [1]: 36.67%
- HEMOGLOBIN [1]: 13.2 G/DL
- LEUKOCYTE COUNT [1]: 12.6 x10E3/uL
- LYMPHOCYTE [1]: 92.33%
- MEAN CORPUSCULAR HEMOGLOBIN [1]: 22.63 pg
- MEAN CORPUSCULAR HEMOGLOBIN CONCENTRATION [1]: 36 G/DL
- MEAN CORPUSCULAR VOLUME [1]: 62.9 fL
- MONOCYTE [1]: 1.33%
- NEUTROPHIL [1]: 5.67%
- NUCLEATED RED BLOOD CELLS [1]: 0 /100WBC
- PLATELET COUNT [1]: 1579.67 x10E3/uL
- ALANINE AMINOTRANSFERASE [1]: 39.67 u/L
- ALBUMIN [1]: 4.47 G/DL
- ALKALINE PHOSPHATASE [1]: 347.33 u/L
- ASPARTATE AMINOTRANSFERASE [1]: 70.33 u/L
- BLOOD UREA NITROGEN [1]: 15 mg/dL
- CARBON DIOXIDE [1]: 26.67 mmol/L
- CHLORIDE [1]: 103.33 MEQ/L
- CHOLESTEROL [1]: 73 mg/dL
- CREATINE PHOSPHOKINASE [1]: 249.33 u/L
- CREATININE [1]: 0.18 mg/dL
- GLUCOSE [1]: 168.67 mg/dL
- LACTATE DEHYDROGENASE [1]: 90 u/L
- LIPASE [1]: 9 u/L
- PHOSPHORUS [1]: 13.23 mg/dL
- POTASSIUM [1]: 6.67 MEQ/L
- SODIUM [1]: 144.43 MEQ/L
- TOTAL BILIRUBIN [1]: 0.2 mg/dL
- TOTAL PROTEIN [1]: 6 G/DL
- URIC ACID [1]: 2.37 mg/dL
- ABSOLUTE BASOPHIL [2]: 0 CELLS/uL
- ABSOLUTE EOSINOPHIL [2]: 311.67 CELLS/uL
- ABSOLUTE LYMPHOCYTE [2]: 17277 CELLS/uL
- ABSOLUTE MONOCYTE [2]: 358.33 CELLS/uL
- ABSOLUTE SEGMENTED NEUTROPHIL [2]: 1686.33 CELLS/uL
- BASOPHIL [2]: 0%
- EOSINOPHIL [2]: 1.67%
- ERYTHROCYTE COUNT [2]: 5.61 x10E6/uL
- HEMATOCRIT [2]: 35.37%
- HEMOGLOBIN [2]: 13.43 G/DL
- LEUKOCYTE COUNT [2]: 19.63 x10E3/uL
- LYMPHOCYTE [2]: 88%
- MEAN CORPUSCULAR HEMOGLOBIN [2]: 23.97 pg
- MEAN CORPUSCULAR HEMOGLOBIN CONCENTRATION [2]: 38 G/DL
- MEAN CORPUSCULAR VOLUME [2]: 63.13 fL
- MONOCYTE [2]: 1.67%
- NEUTROPHIL [2]: 8.67%
- NUCLEATED RED BLOOD CELLS [2]: 0 /100WBC
- PLATELET COUNT [2]: 1342.33 x10E3/uL
- ALANINE AMINOTRANSFERASE [2]: 52 u/L
- ALBUMIN [2]: 4.23 G/DL
- ALKALINE PHOSPHATASE [2]: 414.33 u/L
- ASPARTATE AMINOTRANSFERASE [2]: 89 u/L
- BLOOD UREA NITROGEN [2]: 18.67 mg/dL
- CARBON DIOXIDE [2]: 24.33 mmol/L
- CHLORIDE [2]: 106.67 MEQ/L
- CHOLESTEROL [2]: 62 mg/dL
- CREATINE PHOSPHOKINASE [2]: 325.67 u/L
- CREATININE [2]: 0.19 mg/dL
- GLUCOSE [2]: 163.67 mg/dL
- LACTATE DEHYDROGENASE [2]: 469 u/L
- LIPASE [2]: 8.67 u/L
- PHOSPHORUS [2]: 12.77 mg/dL
- POTASSIUM [2]: 6.24 MEQ/L
- SODIUM [2]: 144.53 MEQ/L
- TOTAL BILIRUBIN [2]: 0.3 mg/dL
- TOTAL PROTEIN [2]: 6.4 G/DL
- URIC ACID [2]: 1.83 mg/dL
- ABSOLUTE BASOPHIL [3]: 0 CELLS/uL
- ABSOLUTE EOSINOPHIL [3]: 77.33 CELLS/uL
- ABSOLUTE LYMPHOCYTE [3]: 8910.33 CELLS/uL
- ABSOLUTE MONOCYTE [3]: 236 CELLS/uL
- ABSOLUTE SEGMENTED NEUTROPHIL [3]: 643 CELLS/uL
- BASOPHIL [3]: 0%
- EOSINOPHIL [3]: 0.67%
- ERYTHROCYTE COUNT [3]: 6.04 x10E6/uL
- HEMATOCRIT [3]: 38.2%
- HEMOGLOBIN [3]: 14.37 G/DL
- LEUKOCYTE COUNT [3]: 9.87 x10E3/uL
- LYMPHOCYTE [3]: 90.33%
- MEAN CORPUSCULAR HEMOGLOBIN [3]: 23.87 pg
- MEAN CORPUSCULAR HEMOGLOBIN CONCENTRATION [3]: 37.63 G/DL
- MEAN CORPUSCULAR VOLUME [3]: 63.37 fL
- MONOCYTE [3]: 2.33%
- NEUTROPHIL [3]: 6.67%
- NUCLEATED RED BLOOD CELLS [3]: 0.33 /100WBC
- PLATELET COUNT [3]: 1205.33 x10E3/uL
- ALANINE AMINOTRANSFERASE [3]: 60.67 u/L
- ALBUMIN [3]: 5.13 G/DL
- ALKALINE PHOSPHATASE [3]: 464.67 u/L
- ASPARTATE AMINOTRANSFERASE [3]: 73.67 u/L
- BLOOD UREA NITROGEN [3]: 13 mg/dL
- CARBON DIOXIDE [3]: 27.33 mmol/L
- CHLORIDE [3]: 102 MEQ/L
- CHOLESTEROL [3]: 86 mg/dL
- CREATINE PHOSPHOKINASE [3]: 277.67 u/L
- CREATININE [3]: 0.21 mg/dL
- GLUCOSE [3]: 139.67 mg/dL
- LACTATE DEHYDROGENASE [3]: 118 u/L
- LIPASE [3]: 9 u/L
- PHOSPHORUS [3]: 10.8 mg/dL
- POTASSIUM [3]: 5.61 MEQ/L
- SODIUM [3]: 145.8 MEQ/L
- TOTAL BILIRUBIN [3]: 0.23 mg/dL
- TOTAL PROTEIN [3]: 7.07 G/DL
- URIC ACID [3]: 0.77 mg/dL
- ABSOLUTE BASOPHIL [4]: 0 CELLS/uL
- ABSOLUTE EOSINOPHIL [4]: 203 CELLS/uL
- ABSOLUTE LYMPHOCYTE [4]: 12514 CELLS/uL
- ABSOLUTE MONOCYTE [4]: 136 CELLS/uL
- ABSOLUTE SEGMENTED NEUTROPHIL [4]: 747 CELLS/uL
- BASOPHIL [4]: 0%
- EOSINOPHIL [4]: 1.5%
- ERYTHROCYTE COUNT [4]: 6.13 x10E6/uL
- HEMATOCRIT [4]: 38%
- HEMOGLOBIN [4]: 14.05 G/DL
- LEUKOCYTE COUNT [4]: 13.6 x10E3/uL
- LYMPHOCYTE [4]: 92%
- MEAN CORPUSCULAR HEMOGLOBIN [4]: 22.9 pg
- MEAN CORPUSCULAR HEMOGLOBIN CONCENTRATION [4]: 37 G/DL
- MEAN CORPUSCULAR VOLUME [4]: 62.05 fL
- MONOCYTE [4]: 1%
- NEUTROPHIL [4]: 5.5%
- NUCLEATED RED BLOOD CELLS [4]: 0 /100WBC
- PLATELET COUNT [4]: 1422.5 x10E3/uL
- ALANINE AMINOTRANSFERASE [4]: 55 u/L
- ALBUMIN [4]: 4.35 G/DL
- ALKALINE PHOSPHATASE [4]: 464 u/L
- ASPARTATE AMINOTRANSFERASE [4]: 93.5 u/L
- BLOOD UREA NITROGEN [4]: 15 mg/dL
- CARBON DIOXIDE [4]: 24 mmol/L
- CHLORIDE [4]: 105 MEQ/L
- CHOLESTEROL [4]: 59 mg/dL
- CREATINE PHOSPHOKINASE [4]: 283.5 u/L
- CREATININE [4]: 0.22 mg/dL
- GLUCOSE [4]: 182.5 mg/dL
- LACTATE DEHYDROGENASE [4]: 152 u/L
- LIPASE [4]: 8.5 u/L
- PHOSPHORUS [4]: 12.7 mg/dL
- POTASSIUM [4]: 5.83 MEQ/L
- SODIUM [4]: 145.35 MEQ/L
- TOTAL BILIRUBIN [4]: 0.2 mg/dL
- TOTAL PROTEIN [4]: 6.4 G/DL
- URIC ACID [4]: 2 mg/dL
